Assay results taken from patent publication US20230014181A1, “CULTURE SYSTEM AND METHODS FOR IMPROVED MODELING OF NEUROLOGICAL CONDITIONS” (Genentech, Inc., priority 2021, published 2023).

Experiments:
[1] = tested on: Aβ42 oligomer-induced neural toxicity in human iPSC neurons; assay: Hit validation by IC50 curves in double culture (MAP2, Synapsin 1/2, CUX2, NFL-H); type: cell-based; details: dose response
Method: (§1) Error bars+/−s.e.m. and n=4 wells. IC50 curves were fitted by Prism software.
as §1
Error bars+/−s.e.m. and n=4 wells. IC50 curves were fitted using Prism software.
To further validate this pathway, several known inhibitors of kinases in the DLK signaling pathway were tested to determine whether they could also be neuroprotective in the AD model.

[2] = tested on: human iPSC-derived microglia treated with 5 μM soluble Aβ species; assay: Microglia plaque formation (Methoxy-X04-positive structures) with dynamin inhibitors; type: cell-based; details: 0.6 μM for 24 h
Method: Error bars+/−s.e.m. and n=4 wells; ANOVA ***P<0.001, **P<0.01.
iPSC derived microglia were obtained and screened for microglia marker expression. iPSC microglia were then differentiated. Briefly, iPSCs were treated with BMP, FGF and activin for 2-4 days to induce mesoderm fate, then treated with VEGF and supportive hematopoietic cytokines for 6-10 days to generate hematopoietic progenitors (HPCs). HPCs were seeded onto matrigel-coated flasks, and treated with IL-34, IDE1 (TGF-β1 agonist), and M-CSF for 3-4 weeks to differentiate into microglia. Human iPSC microglia were validated by immunostaining of the following markers: Goat anti-TREM2 (1:500), Mouse anti-MERTK (1:500), Rabbit anti-IBA1 (1:1000), Rabbit anti-TMEM119 (1:500), CD33 (1:500), CX3CR1 (1:500), CD64 (1:500), P2RY12 (1:500), CD32 (1:500), PU.1 (1:500).
To further confirm time-lapsed result, an immunostaining time-course study was performed. Microglia took up Aβs within 30 minutes (FIG. 14D). After 6 hours, small internalized puncta disappeared and a larger, faintly X04 positive, Aβ42 aggregate appeared at the edge near each cell (FIG. 14D). After 1 day, larger Aβ42 aggregates with higher X04 staining intensity were seen next to microglia, and additional microglia began to surround these aggregates. At 4 days X04 dye positive plaque structures were present with surrounding microglia. […]

[3] = tested on: human iPSC-derived neurons; assay: 21-day time course of single doses of soluble Aβ42 species on iPSC neurons; type: cell-based; details: 1.25 μM
Method: To investigate whether AD pathologies can be studied in a controlled, in vitro system of human neurons, cultured human iPSC-derived neurons were treated with synthetic Aβ42 oligomers, prepared by oligomerization of Aβ42 monomers at 4° C. following previously published protocols (FIG. 2A; following Stine et al., 2011). Briefly, AggreSure™ β-Amyloid (1-42), human monomers (Anaspec) were resuspended in DMSO followed by PBS to form a 100 μM solution. Aβ42 monomers were subsequently incubated at 4° C. for 24 hours, then frozen at −80° C. to stop the oligomerization process. Five to six lots of Aβ42 monomers were screened at time and assessed for neurotoxic and the degree of toxicity. […] For fluorescent Aβ42 oligomer experiments, Beta-Amyloid (1-42), HiLyte™ Fluor 555-labeled, Human (Anaspec) was used. For pHrodo experiments, Beta-Amyloid (1-42) buman was labeled with pHrodo™ Green AM Intracellular pH Indicator (Invitrogen) according to manufacturer's protocol.
Prior to experimentation, media volume in wells containing neurons was equalized with liquid handling automation (Bravo) in order to ensure precise control of concentrations. All Aβ42 oligomers, anti-Aβ, small molecules, inflammatory cytokines were prepared at 10× concentration and added to Neuronal Culture Media at an appropriate volume. […]

[4] = tested on: primary rat cortical neurons; assay: Aβ42 oligomer toxicity in primary rat cortical neurons; type: cell-based; details: several lots
Method: (§2) Error bars+/−s.e.m. and n=4 wells.
The preps were determined to contain a heterogeneous mixture of both soluble oligomer and fibrils, and thus were referred to as “soluble Aβ42 species” (Aps).

soluble Aβ42 species = assay: Anti-Aβ antibody co-treatment rescue of soluble Aβ42 species neurotoxicity in iPSC neurons; type: cell-based, human
Method: as §2
To investigate whether AD pathologies can be studied in a controlled, in vitro system of human neurons, cultured human iPSC-derived neurons were treated with synthetic Aβ42 oligomers, prepared by oligomerization of Aβ42 monomers at 4° C. following previously published protocols (FIG. 2A; following Stine et al., 2011). Briefly, AggreSure™ β-Amyloid (1-42), human monomers (Anaspec) were resuspended in DMSO followed by PBS to form a 100 μM solution. Aβ42 monomers were subsequently incubated at 4° C. for 24 hours, then frozen at −80° C. to stop the oligomerization process. Five to six lots of Aβ42 monomers were screened at time and assessed for neurotoxic and the degree of toxicity. About twenty lots for screened in the course of 4 years. For fluorescent Aβ42 oligomer experiments, Beta-Amyloid (1-42), HiLyte™ Fluor 555-labeled, Human (Anaspec) was used. […]
Several additional tau phosphorylation sites observed in AD, S396/404, S217, S235, S400/T403/S404, and T181, were hyperphosphorylated when treated with Aβ42 oligomers (FIGS. 4V-4Z). […] Using this quantitative platform, the half-maximal inhibitory concentration (IC50) for anti-Aβ antibody rescue of MAP2, synapsin, and pTau induction was generated (FIG. 3R).

primary human astrocytes = assay: Astrocyte GFAP expression in response to soluble Aβ species; type: cell-based; details: astrocytes cultured alone; 3DIV
Method: Error bars+/−s.e.m. and n=4 wells; ANOVA ****P<0.0001, ***P<0.001, **P<0.01.
Astrocytes were then validated. Briefly, primary human astrocytes were detached using Accumax (Innovative Cell Technologies) and seeded onto 384-well plates coated with 1:100 Geltrex™ (Thermofisher) solution for at least 1 hour in a 37° C. cell incubator. Cells were seeded at a density of 2,000 cells/well in Neuron Maintenance Medium (1× BrainPhys™ Basal (StemCell Technology), 1× B27 with Vitamin A, 1×N-2, 5 μg/mL cholesterol, 1 mM creatine, 10 nM β-estradiol, 200 nM ascorbic acid, 1 mM cAMP (Sigma-Aldrich), 20 ng/mL BDNF, 20 ng/mL GDNF, 1 μg/mL Laminin, 0.5 mM GlutaMAX™ (Thermofisher), 1 ng/mL TGF-β1, 1× normocin, 50 U/mL penicillin-streptomycin). Cells were placed in 37° C. cell incubator for 24 hours to allow for attachment. Aβ42 and antibody treatments were added as described in other Examples. Astrogliosis was validated was validated by immunostaining of the following markers: Guinea Pig anti GFAP (1:500), Rabbit anti EAAT1 (1:500), Rabbit anti vimentin (1:500), Rabbit ALDH1L1 (1:500).

[5] = tested on: human iPSC neurons and astrocytes treated with 5 μM sAβ42s; assay: Focused small molecule screen, double culture (neuron, astrocyte), rescue from sAβ42s toxicity, high content imaging; type: cell-based; details: double culture, 5 μM sAβ42s
In short: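 Human iPSC neuron–astrocyte cultures given 5 μM sAβ42 oligomers plus compounds at 50, 25, 12.5 and 6.25 μM (10× additions). Fixed cells immunostained for MAP2, synapsin 1/2, CUX2 and beta III tubulin, imaged by confocal high-content microscopy; % rescue computed, ≥30% in any readout scored as hit.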

[6] = tested on: human iPSC neurons, astrocytes and microglia treated with 5 μM sAβ42s; assay: Focused small molecule screen, triple culture (neuron, astrocyte, microglia), rescue from sAβ42s toxicity; type: cell-based; details: 50.00 μM compound
In short: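 A hit was any compound giving ≥30% rescue of dendrite area (MAP2), synapse count, CUX2 cell count or axon area when dosed against 5 μM sAβ42s toxicity. Testing used iPSC-derived double (neuron/astrocyte) or triple (plus microglia) cultures, at four concentrations of 50, 25, 12.5 and 6.25 μM for double and 50, 12.5, 3.1 and 0.78 μM for triple cultures.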

Cc1cc(Nc2cc(N3CCN(C)CC3)nc(Sc3ccc(NC(=O)C4CC4)cc3)n2)n[nH]1 [VX-680]
neuronal protection against Aβ [1]: conferred neuronal protection against Aβ in a dose-dependent manner

Nc1ncc(C(=O)NC2CN(C(=O)C3CC3)C2)c2ccc(-c3cccc(F)c3)nc12 [GNE-495]
neuronal protection against Aβ [1]: conferred neuronal protection against Aβ in a dose-dependent manner

O=C(N/N=C/c1ccc(O)c(O)c1)c1cc2ccccc2cc1O [Dynasore]
decrease of plaque formation (Methoxy-X04-positive plaque-like structures) [2]: approximately 4 fold

soluble Aβ42 species: heterogeneous mixture of soluble oligomer and fibrils made from synthetic Aβ42 monomers at 4° C.
dendrite or axon reduction [3]: no effect on dendrite or axon reduction | reduction in dendrites or synapses [4]: did not show reduction in dendrites or synapses

Nc1ccc(-c2cnc(N)c(-c3ccc(Cl)cc3)c2)cn1 [PF06260933]
neuronal protection against Aβ [1]: conferred neuronal protection against Aβ in a dose-dependent manner

CCCCCCCCNC(=O)/C(C#N)=C/c1cn(CCCN(C)C)c2ccccc12 [Dynole 34-2]
decrease of plaque formation (Methoxy-X04-positive plaque-like structures) [2]: approximately 4 fold

Crenezumab: anti-Aβ antibody
phospho-Tau p396-404 and p400-403-404 upregulation (soluble Aβ42 species; NAG-NSC Line 2): blocked | loss of dendrites (MAP2) and synapses (synapsin) (soluble Aβ42 species; NAG-NSC Line 2 and primary astrocytes, 5 μM soluble Aβ species, 7 days): rescued | GFAP upregulation by soluble Aβ species (primary human astrocytes): blocked

Cc1cc(NC(=O)c2cccc(NC(=O)/C=C/CN(C)C)c2)ccc1Nc1nccc(-c2cccnc2)n1 [JNK-IN-8]
neuronal protection against Aβ [1]: conferred neuronal protection against Aβ in a dose-dependent manner

Cc1ccc(S(=O)(=O)/C=C/C#N)cc1 [BAY 11-7082]
% B3T rescue ([5]; 6.25 μM compound): 38% | % Cux2 rescue ([5]; 6.25 μM compound): 70% | % MAP2 rescue ([5]; 6.25 μM compound): 34% | % Synapse rescue ([5]; 6.25 μM compound): −2% | % B3T rescue ([5]; 12.5 μM compound): 31% | % Cux2 rescue ([5]; 12.5 μM compound): 85% | % MAP2 rescue ([5]; 12.5 μM compound): 36% | % Synapse rescue ([5]; 12.5 μM compound): −3% | % B3T rescue ([5]; 25 μM compound): 14% | % Cux2 rescue ([5]; 25 μM compound): 82% | % MAP2 rescue ([5]; 25 μM compound): 17% | % Synapse rescue ([5]; 25 μM compound): −13% | % B3T rescue [6]: 44% | % MAP2 rescue [6]: 21% | % Synapse rescue [6]: −1%
